According to ChEMBL document CHEMBL4325853, “Design, synthesis and antibacterial evaluation of 2,4-disubstituted-6-thiophenyl-pyrimidines” (Eur J Med Chem, 2019):
≈ marks a conversion by molar mass, not a printed value.

Columns and labels:
Format in all cases: functional
[1] = tested on: Staphylococcus aureus; assay: Antibacterial activity against methicillin-resistant Staphylococcus aureus isolate 7864 after 18 hrs by broth microdilution method; details: isolate 7864, 18 h
[2] = tested on: Staphylococcus aureus; assay: Antibacterial activity against methicillin-resistant Staphylococcus aureus ATCC 33592 after 18 hrs by broth microdilution method; details: ATCC 33592, 18 h
[3] = tested on: Enterococcus faecium; assay: Antibacterial activity against Enterococcus faecium ATCC 49624 after 18 hrs by broth microdilution method; details: ATCC 49624, 18 h
[4] = tested on: Staphylococcus aureus; assay: Antibacterial activity against methicillin-resistant Staphylococcus aureus isolate 7947 after 18 hrs by broth microdilution method; details: isolate 7947, 18 h
[5] = tested on: Staphylococcus aureus; assay: Antibacterial activity against methicillin-resistant Staphylococcus aureus isolate 1708 after 18 hrs by broth microdilution method; details: isolate 1708, 18 h
[6] = tested on: Staphylococcus aureus; assay: Antibacterial activity against methicillin-resistant Staphylococcus aureus ATCC 43300 after 18 hrs by broth microdilution method; details: ATCC 43300, 18 h
[7] = tested on: Staphylococcus aureus; assay: Antibacterial activity against methicillin-resistant Staphylococcus aureus isolate 7943 after 18 hrs by broth microdilution method; details: isolate 7943, 18 h
[8] = tested on: Staphylococcus aureus; assay: Antibacterial activity against methicillin-resistant Staphylococcus aureus isolate 7972 after 18 hrs by broth microdilution method; details: isolate 7972, 18 h
[9] = tested on: Staphylococcus aureus; assay: Antibacterial activity against methicillin-resistant Staphylococcus aureus isolate 1220 after 18 hrs by broth microdilution method; details: isolate 1220, 18 h
[10] = tested on: Staphylococcus aureus; assay: Antibacterial activity against methicillin-resistant Staphylococcus aureus isolate 3123 after 18 hrs by broth microdilution method; details: isolate 3123, 18 h
[11] = tested on: Staphylococcus aureus; assay: Antibacterial activity against methicillin-resistant Staphylococcus aureus isolate 7917 after 18 hrs by broth microdilution method; details: isolate 7917, 18 h
[12] = tested on: Staphylococcus aureus; assay: Antibacterial activity against methicillin-resistant Staphylococcus aureus isolate 8071 after 18 hrs by broth microdilution method; details: isolate 8071, 18 h
[13] = tested on: Staphylococcus aureus; assay: Antibacterial activity against methicillin-resistant Staphylococcus aureus isolate 4548 after 18 hrs by broth microdilution method; details: isolate 4548, 18 h
[14] = tested on: Staphylococcus aureus; assay: Antibacterial activity against methicillin-resistant Staphylococcus aureus isolate 2491 after 18 hrs by broth microdilution method; details: isolate 2491, 18 h
[15] = tested on: Staphylococcus aureus; assay: Antibacterial activity against methicillin-resistant Staphylococcus aureus ATCC BAA1720 after 18 hrs by broth microdilution method; details: ATCC BAA1720, 18 h
[16] = tested on: Staphylococcus aureus; assay: Antibacterial activity against methicillin-resistant Staphylococcus aureus isolate 6515 after 18 hrs by broth microdilution method; details: isolate 6515, 18 h
[17] = tested on: Staphylococcus aureus; assay: Antibacterial activity against methicillin-resistant Staphylococcus aureus isolate 1610 after 18 hrs by broth microdilution method; details: isolate 1610, 18 h
[18] = tested on: Staphylococcus aureus; assay: Antibacterial activity against methicillin-resistant Staphylococcus aureus isolate 1651 after 18 hrs by broth microdilution method; details: isolate 1651, 18 h
[19] = tested on: Staphylococcus aureus; assay: Antibacterial activity against methicillin-resistant Staphylococcus aureus isolate 7587 after 18 hrs by broth microdilution method; details: isolate 7587, 18 h
[20] = tested on: Staphylococcus aureus; assay: Antibacterial activity against methicillin-resistant Staphylococcus aureus isolate 7449 after 18 hrs by broth microdilution method; details: isolate 7449, 18 h
[21] = tested on: Staphylococcus aureus; assay: Antibacterial activity against methicillin-resistant Staphylococcus aureus isolate 5035 after 18 hrs by broth microdilution method; details: isolate 5035, 18 h
[22] = tested on: Staphylococcus aureus; assay: Antibacterial activity against methicillin-resistant Staphylococcus aureus isolate 2671 after 18 hrs by broth microdilution method; details: isolate 2671, 18 h
[23] = tested on: Staphylococcus aureus; assay: Antibacterial activity against methicillin-resistant Staphylococcus aureus isolate 4127 after 18 hrs by broth microdilution method; details: isolate 4127, 18 h
[24] = tested on: Staphylococcus aureus; assay: Antibacterial activity against methicillin-resistant Staphylococcus aureus isolate 5056 after 18 hrs by broth microdilution method; details: isolate 5056, 18 h
[25] = tested on: Staphylococcus aureus; assay: Antibacterial activity against methicillin-resistant Staphylococcus aureus isolate 7916 after 18 hrs by broth microdilution method; details: isolate 7916, 18 h
[26] = tested on: Staphylococcus aureus; assay: Antibacterial activity against methicillin-resistant Staphylococcus aureus isolate 7664 after 18 hrs by broth microdilution method; details: isolate 7664, 18 h
[27] = tested on: Staphylococcus aureus; assay: Antibacterial activity against methicillin-resistant Staphylococcus aureus isolate 7247 after 18 hrs by broth microdilution method; details: isolate 7247, 18 h
[28] = tested on: Staphylococcus aureus; assay: Antibacterial activity against methicillin-resistant Staphylococcus aureus isolate 7844 after 18 hrs by broth microdilution method; details: isolate 7844, 18 h
[29] = tested on: Staphylococcus aureus; assay: Antibacterial activity against methicillin-resistant Staphylococcus aureus isolate 1947 after 18 hrs by broth microdilution method; details: isolate 1947, 18 h
[30] = tested on: Staphylococcus aureus; assay: Antibacterial activity against methicillin-resistant Staphylococcus aureus isolate 7807 after 18 hrs by broth microdilution method; details: isolate 7807, 18 h
[31] = tested on: Staphylococcus aureus; assay: Antibacterial activity against methicillin-resistant Staphylococcus aureus isolate 7682 after 18 hrs by broth microdilution method; details: isolate 7682, 18 h
[32] = tested on: Staphylococcus aureus; assay: Antibacterial activity against methicillin-resistant Staphylococcus aureus isolate 2931 after 18 hrs by broth microdilution method; details: isolate 2931, 18 h
[33] = tested on: Staphylococcus aureus; assay: Antibacterial activity against methicillin-resistant Staphylococcus aureus isolate 3096 after 18 hrs by broth microdilution method; details: isolate 3096, 18 h
[34] = tested on: Enterococcus faecalis; assay: Antibacterial activity against vancomycin-resistant Enterococcus faecalis ATCC 51575 after 18 hrs by broth microdilution method; details: ATCC 51575, 18 h
[35] = tested on: Staphylococcus aureus; assay: Antibacterial activity against methicillin-resistant Staphylococcus aureus isolate 6334 after 18 hrs by broth microdilution method; details: isolate 6334, 18 h
[36] = tested on: Enterococcus faecalis; assay: Antibacterial activity against Enterococcus faecalis ATCC 29212 after 18 hrs by broth microdilution method; details: ATCC 29212, 18 h
[37] = tested on: Staphylococcus aureus; assay: Antibacterial activity against methicillin-resistant Staphylococcus aureus isolate 7971 after 18 hrs by broth microdilution method; details: isolate 7971, 18 h
[38] = tested on: Staphylococcus aureus; assay: Antibacterial activity against methicillin-resistant Staphylococcus aureus isolate 4955 after 18 hrs by broth microdilution method; details: isolate 4955, 18 h
[39] = tested on: Staphylococcus aureus; assay: Potency index, ratio of methicillin MIC to test compound MIC for methicillin-resistant Staphylococcus aureus ATCC 33592
[40] = tested on: Staphylococcus epidermidis; assay: Potency index, ratio of berberine MIC to test compound MIC for Staphylococcus epidermidis ATCC 12228
[41] = tested on: Enterococcus faecalis; assay: Ratio of MBC to MIC for vancomycin-resistant Enterococcus faecalis ATCC 700221
[42] = tested on: Enterococcus faecium; assay: Potency index, ratio of berberine MIC to test compound MIC for Enterococcus faecium ATCC 49624
[43] = tested on: Staphylococcus aureus; assay: Potency index, ratio of methicillin MIC to test compound MIC for methicillin-resistant Staphylococcus aureus ATCC BAA1720
[44] = tested on: Staphylococcus aureus; assay: Potency index, ratio of berberine MIC to test compound MIC for Staphylococcus aureus ATCC 29213
[45] = tested on: Staphylococcus aureus; assay: Potency index, ratio of methicillin MIC to test compound MIC for methicillin-resistant Staphylococcus aureus ATCC 33591
[46] = tested on: Staphylococcus aureus; assay: Potency index, ratio of methicillin MIC to test compound MIC for methicillin-resistant Staphylococcus aureus ATCC BAA41
[47] = tested on: Staphylococcus aureus; assay: Bactericidal activity against methicillin-resistant Staphylococcus aureus ATCC BAA41 after 18 hrs by broth microdilution method; details: ATCC BAA41, 18 h

## CN[C@H](CC(C)C)C(=O)N[C@H]1C(=O)N[C@@H](CC(N)=O)C(=O)N[C@H]2C(=O)N[C@H]3C(=O)N[C@H](C(=O)N[C@H](C(=O)O)c4cc(O)cc(O)c4-c4cc3ccc4O)[C@H](O)c3ccc(c(Cl)c3)Oc3cc2cc(c3O[C@@H]2O[C@H](CO)[C@@H](O)[C@H](O)[C@H]2O[C@H]2C[C@](C)(N)[C@H](O)[C@H](C)O2)Oc2ccc(cc2Cl)[C@H]1O [VANCOMYCIN]
[1]
  MIC90: 1 µg/mL (≈ 0.69 µM)
[2]
  MIC90: 2 µg/mL (≈ 1.38 µM)
[3]
  MIC90: 2 µg/mL (≈ 1.38 µM)
[4]
  MIC90: 1 µg/mL (≈ 0.69 µM)
[5]
  MIC90: 1 µg/mL (≈ 0.69 µM)
[6]
  MIC90: 2 µg/mL (≈ 1.38 µM)
[7]
  MIC90: 2 µg/mL (≈ 1.38 µM)
[8]
  MIC90: 1 µg/mL (≈ 0.69 µM)
[9]
  MIC90: 0.5 µg/mL (≈ 0.345 µM)
[10]
  MIC90: 1 µg/mL (≈ 0.69 µM)
[11]
  MIC90: 1 µg/mL (≈ 0.69 µM)
[12]
  MIC90: 1 µg/mL (≈ 0.69 µM)
[13]
  MIC90: 2 µg/mL (≈ 1.38 µM)
[14]
  MIC90: 2 µg/mL (≈ 1.38 µM)
[15]
  MIC90: 2 µg/mL (≈ 1.38 µM)
[16]
  MIC90: 1 µg/mL (≈ 0.69 µM)
[17]
  MIC90: 1 µg/mL (≈ 0.69 µM)
[18]
  MIC90: 2 µg/mL (≈ 1.38 µM)
[19]
  MIC90: 2 µg/mL (≈ 1.38 µM)
[20]
  MIC90: 1 µg/mL (≈ 0.69 µM)
[21]
  MIC90: 1 µg/mL (≈ 0.69 µM)
[22]
  MIC90: 1 µg/mL (≈ 0.69 µM)
[23]
  MIC90: 1 µg/mL (≈ 0.69 µM)
[24]
  MIC90: 2 µg/mL (≈ 1.38 µM)
[25]
  MIC90: 1 µg/mL (≈ 0.69 µM)
[26]
  MIC90: 0.5 µg/mL (≈ 0.345 µM)
[27]
  MIC90: 1 µg/mL (≈ 0.69 µM)
[28]
  MIC90: 1 µg/mL (≈ 0.69 µM)
[29]
  MIC90: 2 µg/mL (≈ 1.38 µM)
[30]
  MIC90: 2 µg/mL (≈ 1.38 µM)
[31]
  MIC90: 1 µg/mL (≈ 0.69 µM)
[32]
  MIC90: 1 µg/mL (≈ 0.69 µM)
[33]
  MIC90: 1 µg/mL (≈ 0.69 µM)
[34]
  MIC90: > 64 µg/mL
[35]
  MIC90: 1 µg/mL (≈ 0.69 µM)
[36]
  MIC90: > 64 µg/mL
[37]
  MIC90: 1 µg/mL (≈ 0.69 µM)
[38]
  MIC90: 1 µg/mL (≈ 0.69 µM)

## CC(C)c1ccc(CN2CCCN(CCc3cc(-c4cccs4)nc(-c4ccncc4)n3)CC2)cc1
[1]
  MIC90: 2 µg/mL (≈ 4.02 µM)
[2]
  MIC90: 2 µg/mL (≈ 4.02 µM)
[3]
  MIC90: 2 µg/mL (≈ 4.02 µM)
[4]
  MIC90: 2 µg/mL (≈ 4.02 µM)
[39]
  Ratio: >100
[5]
  MIC90: 2 µg/mL (≈ 4.02 µM)
[6]
  MIC90: 2 µg/mL (≈ 4.02 µM)
[7]
  MIC90: 2 µg/mL (≈ 4.02 µM)
[8]
  MIC90: 2 µg/mL (≈ 4.02 µM)
[40]
  Ratio: 50 - 100
[41]
  Ratio: 2
[9]
  MIC90: 2 µg/mL (≈ 4.02 µM)
[10]
  MIC90: 2 µg/mL (≈ 4.02 µM)
[11]
  MIC90: 2 µg/mL (≈ 4.02 µM)
[12]
  MIC90: 2 µg/mL (≈ 4.02 µM)
[13]
  MIC90: 2 µg/mL (≈ 4.02 µM)
[14]
  MIC90: 4 µg/mL (≈ 8.04 µM)
[15]
  MIC90: 2 µg/mL (≈ 4.02 µM)
[16]
  MIC90: 2 µg/mL (≈ 4.02 µM)
[17]
  MIC90: 4 µg/mL (≈ 8.04 µM)
[42]
  Ratio: 50 - 100
[18]
  MIC90: 2 µg/mL (≈ 4.02 µM)
[19]
  MIC90: 2 µg/mL (≈ 4.02 µM)
[20]
  MIC90: 2 µg/mL (≈ 4.02 µM)
[21]
  MIC90: 2 µg/mL (≈ 4.02 µM)
[43]
  Ratio: >100
[22]
  MIC90: 2 µg/mL (≈ 4.02 µM)
[23]
  MIC90: 2 µg/mL (≈ 4.02 µM)
[24]
  MIC90: 2 µg/mL (≈ 4.02 µM)
[25]
  MIC90: 2 µg/mL (≈ 4.02 µM)
[26]
  MIC90: 2 µg/mL (≈ 4.02 µM)
[44]
  Ratio: 50 - 100
[27]
  MIC90: 2 µg/mL (≈ 4.02 µM)
[28]
  MIC90: 2 µg/mL (≈ 4.02 µM)
[29]
  MIC90: 2 µg/mL (≈ 4.02 µM)
[30]
  MIC90: 2 µg/mL (≈ 4.02 µM)
[31]
  MIC90: 4 µg/mL (≈ 8.04 µM)
[45]
  Ratio: >100
[32]
  MIC90: 2 µg/mL (≈ 4.02 µM)
[46]
  Ratio: >100
[33]
  MIC90: 2 µg/mL (≈ 4.02 µM)
[34]
  MIC90: 2 µg/mL (≈ 4.02 µM)
[35]
  MIC90: 2 µg/mL (≈ 4.02 µM)
[36]
  MIC90: 2 µg/mL (≈ 4.02 µM)
[37]
  MIC90: 2 µg/mL (≈ 4.02 µM)
[38]
  MIC90: 2 µg/mL (≈ 4.02 µM)
[47]
  MBC: 2 µg/mL (≈ 4.02 µM)
